According to article PMC3766871, “Separacenes A–D, Novel Polyene Polyols from the Marine Actinomycete, Streptomyces sp” (Marine Drugs, 2013):

Tests used:
isocitrate lyase (ICL) [1] = target: T1, isocitrate lyase (ICL) (Candida albicans, UniProt Q9P8Q7); assay: positive control in enzyme assay with purified ICL, glyoxylate phenylhydrazone formation at […] nm; format: biochemical
T1 construct: gene ICL1

isocitrate lyase (ICL) [2] = target: T1, isocitrate lyase (ICL); assay: enzyme assay with purified ICL, glyoxylate phenylhydrazone formation at […] nm; format: biochemical

T1 sequence (Q9P8Q7 whole entry): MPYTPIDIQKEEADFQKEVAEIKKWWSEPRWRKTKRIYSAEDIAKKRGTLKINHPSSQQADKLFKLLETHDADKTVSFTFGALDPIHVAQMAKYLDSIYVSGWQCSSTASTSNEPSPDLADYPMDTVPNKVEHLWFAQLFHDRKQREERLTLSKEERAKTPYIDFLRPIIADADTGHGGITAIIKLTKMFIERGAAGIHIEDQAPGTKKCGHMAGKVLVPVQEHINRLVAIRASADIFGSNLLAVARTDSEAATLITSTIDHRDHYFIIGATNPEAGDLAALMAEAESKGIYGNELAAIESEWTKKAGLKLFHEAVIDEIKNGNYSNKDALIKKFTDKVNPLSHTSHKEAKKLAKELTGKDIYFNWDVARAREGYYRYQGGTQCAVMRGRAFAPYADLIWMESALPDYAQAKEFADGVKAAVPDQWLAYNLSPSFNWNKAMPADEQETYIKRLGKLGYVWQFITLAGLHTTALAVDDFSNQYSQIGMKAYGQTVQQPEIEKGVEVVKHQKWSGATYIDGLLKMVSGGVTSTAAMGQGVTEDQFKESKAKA

SMILES	IC50 (isocitrate lyase (ICL) [1]) [µM]	IC50 (isocitrate lyase (ICL) [2]) [µM]
O=C(O)CC[N+](=O)[O-] [3-Nitropropionic acid]	11.3	
C=C[C@@H](O)[C@H](O)/C=C/C=C/C=C/C=C/[C@@H](O)[C@@H](C)O [compound 1, Separacene A]		172
